Values quoted from earlier work in patent publication US20050065130A1, “Pharmaceutical compositions and methods comprising combinations of 2-alkylidene-19-nor-vitamin D derivatives and a cyclooxgenase-2 inhibitor” (Pfizer Inc., priority 2003, published 2005).

SMILES | serum calcium value (as printed: twice the dose, at the 130 pmol dose) [mg/100 ml] | bone calcium mobilization (in words) (chronic mode 7 days, both dose levels (130 and 260 pmol/day)) | activity on bone calcium mobilization (serum calcium), times that of the native hormone 1,25-(OH)2D3 (relative to 1,25-(OH)2D3, chronic mode 7 days)
C=C1/C(=C\C=C2/CCC[C@]3(C)[C@@H]([C@H](C)CCCC(C)(C)O)CC[C@@H]23)C[C@@H](O)C[C@@H]1O [1,25-(OH)2D3, 1,25-dihydroxyvitamin D3, reference compound] | 13.8 | – | –
C=C1[C@H](O)CC(=C/C=C2\CCC[C@]3(C)[C@@H]([C@H](C)CCCC(C)(C)O)CC[C@@H]23)C[C@H]1O [2-Methylene-19-Nor-1,25-(OH)2D3, 1α,25-dihydroxy-2-methylene-19-nor-vitamin D3] | – | extremely strong | 10-100 times
